From patent US20160297851A1, “BROAD SPECTRUM […]” (priority 2012, published 2016)
In brackets after ≈: the same amount, converted by molar mass. Where two headings read alike, the source gives them in different places.

How the values were obtained:
[1] = system: lepB(P84L) E. coli MG1655; assay: microbe, parasite or virus in culture; assay type: cell-based, Escherichia coli
[2] = system: lepB(P29S) S. aureus 8325; assay: microbe, parasite or virus in culture; assay type: cell-based, Staphylococcus aureus; settings: for MIC: Staphylococcus aureus, Sensitive (genetically sensitized) strain, read-out: MIC
[3] = system: spsB(S29P) S. epidermidis RP62A; assay: microbe, parasite or virus in culture; assay type: cell-based, Staphylococcus epidermidis; settings: for MIC: Staphylococcus epidermidis, read-out: MIC
[4] = system: lepB(P84L) P. aeruginosa PAO1; assay: microbe, parasite or virus in culture; assay type: cell-based, Pseudomonas aeruginosa; settings: for MIC: Pseudomonas aeruginosa, PAO1, Sensitive (genetically sensitized) strain, read-out: MIC
wild type S. aureus 8325 = assay: microbe, parasite or virus in culture; assay type: cell-based, Staphylococcus aureus; settings: Staphylococcus aureus; Resistant strain (wild type); read-out: MIC
wild type E. coli MG1655 = assay: microbe, parasite or virus in culture; assay type: cell-based, Escherichia coli; settings: Escherichia coli, MG1655, Resistant strain (wild type); read-out: MIC
[5] = system: wild type P. aeruginosa PAO1; assay: microbe, parasite or virus in culture; assay type: cell-based, Pseudomonas aeruginosa; settings: Pseudomonas aeruginosa, PAO1, Resistant strain (wild type); read-out: MIC
[6] = system: wild type S. epidermidis RP62A; assay: microbe, parasite or virus in culture; assay type: cell-based, Staphylococcus epidermidis; settings: for MIC: Sensitive strain (SPase without the resistance-conferring Pro)
[7] = system: Gram-negative strains (E. coli, P. aeruginosa); assay: MIC panel; assay type: cell-based; settings: wild type or mutant Gram-negative strains
[8] = Table 3, P3 position derivatives, unit not given
[9] = Escherichia coli, MG1655, Sensitive (genetically sensitized) strain, read-out: MIC
[10] = Staphylococcus epidermidis, read-out: MIC

`CCc1ccc(-c2ccc(C(=O)N(C)[C@H](CO)C(=O)N[C@H](C)C(=O)NCC(=O)N(C)[C@@H]3C(=O)N[C@@H](C)C(=O)N[C@H](C(=O)O)Cc4ccc(O)c(c4)-c4cc3ccc4O)cc2)cc1` [Compound 9] gave an MIC ([1]; Sensitive (genetically sensitized) strain) greater than 64 µg/mL, an MIC [2] greater than 64 µg/mL and an MIC [3] greater than 64 µg/mL. For the same molecule, the MIC [4] was greater than 64 µg/mL, the MIC (wild type S. aureus 8325) was greater than 64 µg/mL and the MIC (wild type E. coli MG1655) was greater than 64 µg/mL. It also gave an MIC [5] greater than 64 µg/mL and an MIC [6] of 64 µg/mL (≈ 75.2 µM).
In the case of `CCCCCCCCCCCCCCCC(=O)N(C)[C@H](CO)C(=O)N[C@H](C)C(=O)NCC(=O)N(C)[C@@H]1C(=O)N[C@@H](CCC)C(=O)N[C@H](C(=O)O)Cc2ccc(O)c(c2)-c2cc1ccc2O` [Compound 28], the “minimal inhibitory concentration (MIC)” value [1, 8] is reported as 2, the “minimal inhibitory concentration (MIC)” value [2, 8] is reported as 8 and the “minimal inhibitory concentration (MIC)” value [4, 8] is reported as 8. For the same molecule, the “minimal inhibitory concentration (MIC)” value [6, 8] was 1.
Work on `CCCCCCCCCCCCCCCC(=O)N(C)[C@H](CO)CCC(=O)N[C@H](C)C(=O)NCC(=O)N(C)[C@@H]1C(=O)N[C@@H](C)C(=O)N[C@H](C(=O)O)Cc2ccc(O)c(c2)-c2cc1ccc2O` [Compound 24] yielded an MIC [1, 9] greater than 64 µg/mL, an MIC [2] of 4 µg/mL and an MIC [3] of 16 µg/mL (≈ 17.6 µM). The MIC [4] was greater than 64 µg/mL, the MIC (wild type S. aureus 8325) was 16 µg/mL (≈ 17.6 µM) and the MIC (wild type E. coli MG1655) was greater than 64 µg/mL. For the same molecule, the MIC [5] was greater than 64 µg/mL and the MIC [6, 10] was 8 µg/mL (≈ 8.8 µM).
Molecule `CCCCCCCCCCCCCCCC(=O)N1CC(O)C[C@@H]1C(=O)N[C@H](C)C(=O)NCC(=O)N(C)[C@@H]1C(=O)N[C@@H](C)C(=O)N[C@H](C(=O)O)Cc2ccc(O)c(c2)-c2cc1ccc2O` (some centres unmarked) [Compound 19] has an MIC [1, 9] greater than 64 µg/mL, an MIC [2] of 4 µg/mL and an MIC [3] of 8 µg/mL (≈ 8.96 µM). The MIC [4] was greater than 64 µg/mL, the MIC (wild type S. aureus 8325) was greater than 64 µg/mL and the MIC (wild type E. coli MG1655) was greater than 64 µg/mL. The MIC [5] was greater than 64 µg/mL and the MIC [6, 10] was 4 µg/mL (≈ 4.48 µM).
Molecule `C[C@@H]1NC(=O)[C@@H](N(C)C(=O)CNC(=O)[C@@H](C)NC(=O)[C@@H](CO)N(C)C(=O)c2ccc(-c3ccccc3)cc2)c2ccc(O)c(c2)-c2cc(ccc2O)C[C@@H](C(=O)O)NC1=O` [Compound 8] has an MIC [1, 9] greater than 64 µg/mL, an MIC [2] greater than 64 µg/mL and an MIC [3] greater than 64 µg/mL. The MIC [4] was greater than 64 µg/mL, the MIC (wild type S. aureus 8325) was greater than 64 µg/mL and the MIC (wild type E. coli MG1655) was greater than 64 µg/mL. For the same molecule, the MIC [5] was greater than 64 µg/mL, the activity in words [6] was “retains some activity” and the MIC [6, 10] was 32 µg/mL (≈ 38.9 µM).
In the case of `CCCCCCCCCCCCCCCC(=O)N(C)[C@H](CO)C(=O)N(C)[C@H](C)C(=O)NCC(=O)N(C)[C@@H]1C(=O)N[C@@H](C)C(=O)N[C@H](C(=O)O)Cc2ccc(O)c(c2)-c2cc1ccc2O` [Compound 18], the MIC [1, 9] is reported as greater than 64 µg/mL, the MIC [2] is reported as greater than 64 µg/mL and the activity in words [3] is reported as “retained full activity”. The MIC [3] was greater than 64 µg/mL, the activity in words [7] was “complete loss of activity” and the MIC [4] was greater than 64 µg/mL. For the same molecule, the MIC (wild type S. aureus 8325) was greater than 64 µg/mL, the MIC (wild type E. coli MG1655) was greater than 64 µg/mL and the MIC [5] was greater than 64 µg/mL. For the same molecule, the MIC [6, 10] was greater than 64 µg/mL.
`CCCCCCCCCCCCCCCC(=O)N(C)[C@H](CO)C(=O)N[C@H](C)C(=O)NCC(=O)N(C)[C@@H]1C(=O)N[C@@H](C)C(=O)N[C@H](C(=O)O)Cc2ccc(O)c(c2)-c2cc1ccc2O` [Compound 25] was tested, and the MIC [2] was 64 µg/mL, the activity in words [7] was “no activity” and the MIC [6, 10] was 32 µg/mL (≈ 36.3 µM).
Molecule `CCCCCCCCc1ccc(C(=O)N(C)[C@H](CO)C(=O)N[C@H](C)C(=O)NCC(=O)N(C)[C@@H]2C(=O)N[C@@H](C)C(=O)N[C@H](C(=O)O)Cc3ccc(O)c(c3)-c3cc2ccc3O)cc1` [Compound 14] has an MIC [1, 9] of 32 µg/mL, an MIC [2] of 64 µg/mL and an MIC [3] greater than 64 µg/mL. For the same molecule, the MIC [4] was greater than 64 µg/mL, the MIC (wild type S. aureus 8325) was greater than 64 µg/mL and the MIC (wild type E. coli MG1655) was greater than 64 µg/mL. The MIC [5] was greater than 64 µg/mL and the MIC [6, 10] was 8 µg/mL (≈ 9.31 µM).
In the case of `CCCCCCCCCCCCCCCC(=O)N(C)[C@H](CO)C(=O)N[C@H](C)C(=O)NCC(=O)N(C)[C@@H]1C(=O)N[C@@H](CC(C)C)C(=O)N[C@H](C(=O)O)Cc2ccc(O)c(c2)-c2cc1ccc2O` [Compound 35], the activity in words [1] is reported as “maintained activity”, the “minimal inhibitory concentration (MIC)” value [1] is reported as 4 and the “minimal inhibitory concentration (MIC)” value [2] is reported as 32. For the same molecule, the “fold loss of activity relative to arylomycin C16” value [4] was greater than 16 fold, the “minimal inhibitory concentration (MIC)” value [4] was greater than 64 and the “minimal inhibitory concentration (MIC)” value [6] was 2.
In the case of `CCCCCCCCCCCCCCCC(=O)N(C)[C@H](CO)C(=O)N[C@H](C)C(=O)NCC(=O)N(C)[C@@H]1C(=O)N[C@@H](CC)C(=O)N[C@H](C(=O)O)Cc2ccc(O)c(c2)-c2cc1ccc2O` [Compound 27], the “minimal inhibitory concentration (MIC)” value [1] is reported as 1, the “minimal inhibitory concentration (MIC)” value [2] is reported as 8 and the “minimal inhibitory concentration (MIC)” value [4] is reported as 4. The “minimal inhibitory concentration (MIC)” value [6] was 0.5.
